Measurements taken from ChEMBL document CHEMBL5036301, “Heteroaryl ether analogues of an antileishmanial 7-substituted 2-nitroimidazooxazine lead afford attenuated hERG risk: In vitro and in vivo appraisal” (Eur J Med Chem, 2021).
Converted amounts (≈) assume the structure as drawn.

Key:
[1] = Kinetic solubility of compound in water at pH7 by HPLC analysis; conditions: pH 7
[2] = AUClast in mouse at 25 mg/kg, po measured upto 24 hrs LC-MS/MS analysis; conditions: in vivo
[3] = Volume of distribution at steady state in mouse at 1 mg/kg, iv measured upto 24 hrs LC-MS/MS analysis; conditions: in vivo
[4] = tested on: Leishmania donovani; assay: Antileishmanial activity against Leishmania donovani amastigotes infected in mouse J774A.1 cells incubated for 72 hrs by luciferase assay; format: functional, organism-based; conditions: J774.A1, 72 h
[5] = in vivo; conditions: mouse, po, 25 mg/kg
[6] = Initial plasma concentration in mouse at 1 mg/kg, iv measured upto 24 hrs LC-MS/MS analysis
[7] = Stability of compound in CD-1 mouse liver microsomes assessed as percentage of parent compound remaining at 0.5 uM measured after 30 mins; format: ADME, Microsome; conditions: read-out: Stability
[8] = target: hERG (KCNH2) (Homo sapiens, UniProt Q12809); assay: Inhibition of human ERG expressed in HEK293 cells at 10 uM relative to control; format: cell-based; conditions: HEK293 cells expressing human ERG
[9] = Stability of compound in human liver microsomes assessed as percentage of parent compound remaining at 0.5 uM measured after 30 mins; format: ADME, Microsome; conditions: read-out: Stability
[10] = tested on: Leishmania infantum; assay: Antileishmanial activity against Leishmania infantum MHOM/MA(BE)/67 amastigotes infected in macrophages assessed as reduction in parasite burden by giemsa staining based microscopic analysis; format: functional, organism-based
[11] = Clearance in mouse at 1 mg/kg, iv measured upto 24 hrs LC-MS/MS analysis; conditions: in vivo
[12] = in vivo; conditions: mouse, po, 25 mg/kg; remark: listed apart in the source
[13] = Stability of compound in hamster liver microsomes assessed as percentage of parent compound remaining at 0.5 uM measured after 30 mins; format: ADME, Cricetulus griseus, Microsome; conditions: chinese hamster, read-out: Stability
[14] = Half life in mouse at 1 mg/kg, iv measured upto 24 hrs LC-MS/MS analysis; conditions: in vivo
[15] = in vivo; conditions: mouse, po, 25 mg/kg; remark: listed apart in the source
[16] = AUClast in mouse at 1 mg/kg, iv measured upto 24 hrs LC-MS/MS analysis; conditions: in vivo
[17] = tested on: MRC5; assay: Cytotoxicity against human MRC5 cells assessed as cell viability after 72 hrs by fluorimetric analysis; format: ADME, cell-based; conditions: MRC5, 72 h
[18] = tested on: Trypanosoma cruzi; assay: Antitrypanosomal activity against Trypanosoma cruzi Tulahuen CL2 infected in human MRC-5 cells assessed as parasite growth; format: functional, organism-based; conditions: Tulahuen CL2, MRC5
[19] = mouse, in vivo, po, 25 mg/kg, 24 h
[20] = Kinetic solubility of compound in 0.1 M Hcl at pH1 by HPLC analysis; format: physicochemical; conditions: pH 1, read-out: Kinetic_solubility
[21] = tested on: Mycobacterium tuberculosis; assay: Antitubercular activity against Mycobacterium tuberculosis H37Rv assessed as reduction in microbial growth under aerobic condition by luminescence analysis; format: functional
[22] = tested on: Mycobacterium tuberculosis; assay: Antitubercular activity against Mycobacterium tuberculosis H37Rv assessed as reduction in microbial growth under anaerobic condition by luminescence analysis; format: functional
[23] = tested on: Leishmania donovani; assay: Antileishmanial activity against Leishmania donovani amastigotes infected in BALB/C mouse assessed as reduction in parasite burden in liver tissue at 50 mg/kg, po administered once per day for 5 days relative to control; format: functional; conditions: 120 h, time 5 day
[24] = tested on: Leishmania infantum; assay: animal or person; conditions: in Mesocricetus auratus, po, 120 h, read-out: INH
Description: Antileishmanial activity against Leishmania infantum amastigotes infected in golden hamster assessed as reduction in parasite load in spleen tissue at 12.5 mg/kg, po administered once daily for 5 days relative to control

[25] = tested on: Leishmania infantum; assay: Antileishmanial activity against Leishmania infantum amastigotes infected in golden hamster assessed as reduction in parasite load in bone marrow tissue at 50 mg/kg, po administered once daily for 5 days relative to control; format: functional; conditions: 120 h, time 5 day
[26] = tested on: Leishmania infantum; assay: Antileishmanial activity against Leishmania infantum amastigotes infected in golden hamster assessed as reduction in parasite load in spleen tissue at 25 mg/kg, po administered once daily for 5 days relative to control; conditions: in Mesocricetus auratus, 120 h, read-out: INH
[27] = tested on: Leishmania donovani; assay: Antileishmanial activity against Leishmania donovani amastigotes infected in BALB/C mouse assessed as reduction in parasite burden in liver tissue at 25 mg/kg, po administered once per day for 5 days relative to control; conditions: 120 h, read-out: INH
[28] = tested on: Leishmania infantum; assay: animal or person; conditions: in Mesocricetus auratus, po, 120 h, read-out: INH; remark: listed apart in the source
Description: Antileishmanial activity against Leishmania infantum amastigotes infected in golden hamster assessed as reduction in parasite load in bone marrow tissue at 12.5 mg/kg, po administered once daily for 5 days relative to control

[29] = tested on: Leishmania infantum; assay: Antileishmanial activity against Leishmania infantum amastigotes infected in golden hamster assessed as reduction in parasite load in spleen tissue at 50 mg/kg, po administered once daily for 5 days relative to control; format: functional; conditions: 120 h, time 5 day
[30] = tested on: Leishmania infantum; assay: Antileishmanial activity against Leishmania infantum amastigotes infected in golden hamster assessed as reduction in parasite load in liver tissue at 25 mg/kg, po administered once daily for 5 days relative to control; conditions: in Mesocricetus auratus, 120 h, read-out: INH
[31] = tested on: Leishmania donovani; assay: Antileishmanial activity against Leishmania donovani amastigotes infected in BALB/C mouse assessed as reduction in parasite burden in liver tissue at 6.25 mg/kg, po administered once per day for 5 days relative to control; format: functional; conditions: 120 h, time 5 day
[32] = tested on: Leishmania infantum; assay: Antileishmanial activity against Leishmania infantum amastigotes infected in golden hamster assessed as reduction in parasite load in liver tissue at 50 mg/kg, po administered once daily for 5 days relative to control; format: functional; conditions: 120 h, time 5 day
[33] = tested on: Leishmania infantum; assay: animal or person; conditions: in Mesocricetus auratus, po, 120 h, read-out: INH; remark: listed apart in the source
Description: Antileishmanial activity against Leishmania infantum amastigotes infected in golden hamster assessed as reduction in parasite load in liver tissue at 12.5 mg/kg, po administered once daily for 5 days relative to control

[34] = tested on: Leishmania donovani; assay: Antileishmanial activity against Leishmania donovani amastigotes infected in BALB/C mouse assessed as reduction in parasite burden in liver tissue at 3.13 mg/kg, po administered once per day for 5 days relative to control; format: functional; conditions: 120 h, time 5 day
[35] = AUClast in hamster at 41 to 51 mg/kg, po measured upto 24 hrs LC-MS/MS analysis; conditions: chinese hamster, in vivo
[36] = Half life in mouse at 25 mg/kg, po measured upto 24 hrs LC-MS/MS analysis; conditions: in vivo
[37] = in vivo; conditions: chinese hamster, po
[38] = in vivo; conditions: chinese hamster, po; remark: listed apart in the source

Sequence of hERG (KCNH2) (Q12809 whole entry): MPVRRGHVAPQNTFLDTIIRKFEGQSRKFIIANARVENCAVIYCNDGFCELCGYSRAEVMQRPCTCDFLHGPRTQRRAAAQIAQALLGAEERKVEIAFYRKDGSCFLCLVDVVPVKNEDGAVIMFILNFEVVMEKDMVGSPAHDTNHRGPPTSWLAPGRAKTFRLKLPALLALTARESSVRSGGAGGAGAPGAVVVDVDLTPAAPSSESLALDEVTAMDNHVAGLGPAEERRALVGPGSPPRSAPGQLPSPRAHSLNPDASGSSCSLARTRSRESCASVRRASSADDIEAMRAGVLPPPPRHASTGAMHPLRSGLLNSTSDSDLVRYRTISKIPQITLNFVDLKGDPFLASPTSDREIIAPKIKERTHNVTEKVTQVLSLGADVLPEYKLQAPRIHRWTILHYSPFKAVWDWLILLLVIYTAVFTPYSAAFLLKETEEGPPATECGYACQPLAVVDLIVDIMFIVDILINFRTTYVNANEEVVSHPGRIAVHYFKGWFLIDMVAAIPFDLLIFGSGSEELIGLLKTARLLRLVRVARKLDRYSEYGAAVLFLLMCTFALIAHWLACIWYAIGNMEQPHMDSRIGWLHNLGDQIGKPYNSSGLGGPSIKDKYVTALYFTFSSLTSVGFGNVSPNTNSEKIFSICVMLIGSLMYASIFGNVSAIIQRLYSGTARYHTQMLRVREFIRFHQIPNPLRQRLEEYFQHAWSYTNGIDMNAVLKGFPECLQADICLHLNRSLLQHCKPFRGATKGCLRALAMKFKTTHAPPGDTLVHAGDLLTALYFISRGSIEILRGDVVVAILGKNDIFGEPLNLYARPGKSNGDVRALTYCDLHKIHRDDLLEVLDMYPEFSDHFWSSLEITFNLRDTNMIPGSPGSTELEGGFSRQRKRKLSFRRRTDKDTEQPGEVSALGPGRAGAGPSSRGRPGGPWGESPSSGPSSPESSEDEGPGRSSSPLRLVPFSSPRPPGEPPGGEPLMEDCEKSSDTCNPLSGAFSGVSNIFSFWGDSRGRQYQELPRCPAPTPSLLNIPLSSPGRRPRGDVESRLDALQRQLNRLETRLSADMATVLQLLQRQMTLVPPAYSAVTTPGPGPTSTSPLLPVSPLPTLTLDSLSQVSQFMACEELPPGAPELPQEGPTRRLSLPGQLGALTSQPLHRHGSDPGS

O=[N+]([O-])c1cn2c(n1)OC(COc1ncc(Cl)cn1)CC2 (centres undefined)
solubility kinetic [1]: 6.6 µg/mL (≈ 21.2 µM)
AUC(0-t) at 24 h [2]: 3830 ng·h/mL
Vd at 24 h [3]: 0.37 L/kg
IC50 [4]: 120 nM
Tmax at 24 h [5]: 2 h
C0 at 24 h [6]: 1900 ng/mL
remaining at 0.5 h, 0.5 µM [7]: 100%
inhibition at 10 µM [8]: 12%
remaining at 0.5 h, 0.5 µM [9]: 99%
IC50 [10]: > 64000 nM
clearance at 24 h [11]: 7.3 mL/min/kg
bioavailability at 24 h [12]: 15%
remaining at 0.5 h, 0.5 µM [13]: 90%
AUC at 24 h [14]: 580 ng·h/mL
Cmax at 24 h [15]: 760 ng/mL
AUC(0-t) at 24 h [16]: 2070 ng·h/mL
IC50 [17]: > 64000 nM
IC50 [18]: 39000 nM

CC1(COc2ccc(C(F)(F)F)cn2)CCn2cc([N+](=O)[O-])nc2O1 (centres undefined)
solubility kinetic [1]: 19 µg/mL (≈ 53 µM)
AUClast ([2]; 24 h): 57100 ng·h/mL
Vd at 24 h [3]: 1.3 L/kg
F [19]: 100%
IC50 [4]: 210 nM
Tmax at 24 h [5]: 0.5 h
C0 at 24 h [6]: 810 ng/mL
solubility kinetic [20]: 12 µg/mL (≈ 33.5 µM)
MIC [21]: 0.6 µM
inhibition at 10 µM [8]: 18%
IC50 [10]: 270 nM
MIC [22]: 8.9 µM
clearance at 24 h [11]: 31 mL/min/kg
inhibition in vivo at 50 mg/kg [23]: 96%
half-life at 24 h [14]: 0.85 h
Cmax at 24 h [15]: 15000 ng/mL
AUClast ([16]; 24 h): 544 ng·h/mL
IC50 [17]: > 64000 nM
IC50 [18]: 290 nM

C[C@@]1(COc2ccc(OC(F)(F)F)cc2)CCn2cc([N+](=O)[O-])nc2O1
inhibition in vivo at 12.5 mg/kg [24]: 44.4%
inhibition in vivo at 50 mg/kg [25]: 99.7%
IC50 [4]: 370 nM
inhibition in vivo at 25 mg/kg [26]: 92.3%
inhibition in vivo at 25 mg/kg [27]: 66%
inhibition in vivo at 12.5 mg/kg [28]: 0%
inhibition in vivo at 50 mg/kg [29]: 99.9%
inhibition in vivo at 25 mg/kg [30]: 97.2%
inhibition in vivo at 6.25 mg/kg [31]: 49%
inhibition in vivo at 50 mg/kg [32]: 100%
inhibition in vivo at 12.5 mg/kg [33]: 47.3%
inhibition in vivo at 3.13 mg/kg [34]: 18%

C[C@@]1(COc2ccc(C(F)(F)F)cn2)CCn2cc([N+](=O)[O-])nc2O1
solubility kinetic [1]: 21 µg/mL (≈ 58.6 µM)
AUC(0-t) at 24 h [2]: 183000 ng·h/mL
inhibition in vivo at 50 mg/kg [25]: 37.4%
AUC(0-t) at 24 h [35]: 924 ng·h/mL
Tmax at 24 h [5]: 2 h
half-life at 24 h [36]: 1.5 h
inhibition in vivo at 50 mg/kg [29]: 52.3%
Cmax at 24 h [37]: 310 ng/mL
IC50 [10]: 750 nM
inhibition in vivo at 50 mg/kg [23]: 38%
Tmax at 24 h [38]: 4.3 h
inhibition in vivo at 50 mg/kg [32]: 46.5%
Cmax at 24 h [15]: 33000 ng/mL
IC50 [17]: > 64000 nM
IC50 [18]: 980 nM
